Patent US9802880B2, “Cannabigerol derivatives” (VIVACELL BIOTECHNOLOGY ESPAÑA S.L., priority 2014, dated 2017)

Key:
3NP-lesioned mice = test: Huntington's disease 3NP model, behavioral score; format: in vivo, C57BL/6 mice; settings: 10 mg/kg i.p., four injections, FIG. 9
Procedure: Mice were subjected to behavioral tests for determining their neurological status after the treatment with compounds I (10 mg/kg) (A), III (10 mg/kg) (B) and XII (10 mg/kg) (C). Hind limb clasping, Locomotor activity, Hind limb dystonia and Truncal Dystonia were rated from 0 to 2 based on severity: a score of 0 typically indicates normal function and 2 seriously affected. Values are expressed as means±SEM for 8 animals per group.
Lesions of the striatum were induced with 3-NP in adult (16 week old; 30 g) male C57BL/6 mice (Harlan Ibérica, Barcelona, Spain). To this end, mice were subjected to seven intraperitoneal (i.p.) injections of 3NP (one injection each 12 hours) at a dose of 50 mg/kg (prepared in phosphate-buffered saline) for 3 days. These animals and their respective non-lesioned controls were used for pharmacological studies with compounds CBG-Q (compound I) and with compounds III and XII (FIG. 9). At least 6-8 animals were used per experimental group. Treatments consisted of four i.p. injections of the compounds at the indicated doses (one injection each 24 hours), or vehicle (DMSO 0.2%, BSA 5% in PBS) 30 min before the injections of 3NP. All animals were euthanized 12 hours after the last 3NP injection. Once euthanized, animals were dissected and their brains were rapidly removed. The right hemisphere was used to dissect the striatum, which was quickly frozen in RNAlater (Sigma-Aldrich, Germany) to analyzed inflammatory markers were by Real Time PCR. The left hemisphere was fixed in fresh 4% paraformaldehyde (in 0.1M phosphate buffered-saline) for 48 hours at 4° C. and embedded in paraffin wax for histological analysis. Mice were subjected to behavioral tests for determining their neurological status. We evaluated the general locomotor activity, the hindlimb clasping and dystonia, and the truncal dystonia. All behavioral tests were conducted prior to drug injections to avoid acute effects of the compounds under investigation.

6-OHDA-lesioned mice = test: Parkinson's disease 6-OHDA model, rotarod and actimeter; format: in vivo, C57BL/6 mice; settings: 6-OHDA mice, chronic intraperitoneal treatment 10 mg/ml, 14 days, FIG. 13
Procedure: C57BL/6 mice were unilaterally injected intracerebroventricullarly with 6-hydroxydopamine (6-OHDA) or saline (control mice) and subjected to chronic intraperitoneal treatment with compound III (10 mg/ml) or vehicle (14 days), starting 16 h after the 6-OHDA injection. Motor coordination was evaluated by rotarod performance and motor activity was evaluated using a computer-aided actimeter. Values are expressed as means±SEM for 6 animals per group.
C57BL/6 mice pretreated intracerebroventricularly (i.c.v.) were anesthetized with an intraperitoneal (i.p.) injection of 200 mg′kg of 2,2,2-tribromoethanol (Sigma-Aldrich) and placed in a stereotaxic frame with a mouse adapter (David Kopf Instruments, Tujunga, Calif., USA). […] Motor coordination was evaluated in the rotarod test (Ugo Basile, Rome, Italy) at crescent speed. […] The latency to fall off the rod was measured on consecutive days in lesioned mice following the compound III administration or vehicle control. Motor activity (ambulatory activity, mean velocity, resting time, fast movements and number of rearings) was evaluated using a computer-aided actimeter (FIG. 13).

## CCCCCC1=C(NCC)C(=O)C(C/C=C(\C)CCC=C(C)C)=C(O)C1=O [Compound III, 6-(3,7-dimethyl-octa-2,6-dienyl)-5-hydroxy-3-pentyl-2-ethylamino-[1,4]benzoquinone]
3NP-lesioned mice
  clinical symptoms induced by 3-NP intoxication (hind limb clasping, locomotor activity, hind limb dystonia, truncal dystonia): clearly alleviates such symptomatology
6-OHDA-lesioned mice
  motor symptoms (ambulatory activity, mean velocity, resting time, fast movement, number of rearing, rotarod performance): almost completely suppressed
